# Source: PMC2397535 (Breast Cancer Research : BCR, 2008)
# Where two headings read alike, the source gives them in different places. Marks after values point to notes of the source that are not given here.
# How the values were obtained:
# [1] = system: MDA-MB-231; experiment: antiproliferative effect (GI50), breast cancer cell line; format: cell-based; settings: Homo sapiens
# [2] = system: phospho-AKT (Ser473); experiment: AKT phosphorylation in BT-474 xenografts (Western blot); format: in vivo, mice
# Procedure: (§1) To assess total levels of AKT, phosphorylated AKT, β-tubulin, and ERBB2 in the cell extracts, 20 to 30 μg of total protein was resolved by the appropriate-percentage SDS-PAGE. The following antibodies were used for immunoblotting: anti-AKT (cat. no. 9272, rabbit polyclonal; Cell Signaling Technology, Inc.), anti-phospho-AKT (Ser473) (cat. no. 9271, rabbit polyclonal; Cell Signaling Technology, Inc.), anti-β-tubulin (cat. no. T 4026, mouse monoclonal, clone Tub2.1; Sigma-Aldrich, St. Louis, MO, USA), and anti-ERBB2 (cat. no. 28-0004, rabbit polyclonal; Zymed Laboratories Inc., now part of Invitrogen Corporation, Carlsbad, CA, USA). Bound antibodies on PVDF immunoblots were detected by Amersham ECL (Amersham, now part of GE Healthcare, Little Chalfont, Buckinghamshire, UK) or infrared fluorescence detection (LI-COR Biosciences, Lincoln, NE, USA).
# (§2) Invasive procedures were performed under Forene anesthesia. […] The animals were fed food and water ad libitum.
# [3] = system: HSP70; experiment: HSP70 induction in BT-474 xenografts (immunohistochemistry); format: in vivo, mice; settings: single 50 mg/kg dose
# Procedure: Formalin-fixed paraffin-embedded tissue sections were stained using the Ventana Discovery System (Ventana Medical Systems, Inc., Tucson, AZ, USA). Deparaffinization of tissue sections and heat-induced epitope retrieval using Standard Cell Conditioning Solution 1 (Ventana Medical Systems, Inc.) were performed directly on the System. A rabbit anti-human ERBB2 (HER2) monoclonal antibody (Lab Vision Corporation, Fremont, CA, USA) and a mouse anti-human HSP70 (Assay Designs, Inc.) were prepared in Dako diluent (Dako North America, Inc., Carpinteria, CA, USA) and used at concentrations of 2 ug/mL for 32 minutes and 10 ug/mL for 60 minutes, respectively. For HSP70 staining, slides were incubated with a biotin-labeled anti-mouse IgG1 (Research Diagnostics, Inc., now known as Fitzgerald Industries International, Concord, MA, USA) at a concentration of 1.25 ug/mL diluted in M.O.M. (Mouse-on-Mouse) (Vector Laboratories, Peterborough, UK). Detection using a 3,3'-diaminobenzadine reaction was performed on the section by using the Ventana OmniMAP DAB for the ERBB2 antibody and the Ventana DAB Map reagent for the HSP70 antibody (Ventana Medical Systems, Inc.). Each tissue section was subsequently counterstained with hematoxylin. To ensure antibody specificity, consecutive tissue sections were incubated with normal isotype-matched immunoglobulins (rabbit IgG; Jackson ImmunoResearch Laboratories, Inc., West Grove, PA, USA, and mouse IgG1; Lab Vision Corporation) used at concentrations equivalent to Her2 and HSP70 antibodies. Stained tissue sections were quantified using the Aperio Digital Pathology System (Aperio Technologies, Inc., Vista, CA, USA).
# as §2
# [4] = system: ERBB2, AKT, phospho-AKT in BT-474 cells; experiment: client protein levels in BT-474 cells (Western blot); format: cell-based, human
# Procedure: as §1
# [5] = system: BT-474; experiment: antiproliferative effect (GI50), breast cancer cell line; format: cell-based; settings: Homo sapiens
# [6] = system: MCF-7; experiment: as above; format: cell-based; settings: Homo sapiens, MCF7
# [7] = system: MAXF 1162; experiment: clonogenic (soft agar colony formation) assay, primary breast tumor; format: cell-based, human
# [8] = system: MAXF 401; experiment: as above; format: cell-based, human
# [9] = system: MAXF 583; experiment: as above; format: cell-based, human
# [10] = system: SkBr3; experiment: antiproliferative effect (GI50), breast cancer cell line; format: cell-based; settings: Homo sapiens, SK-BR-3
# [11] = system: MAXF 1384; experiment: clonogenic (soft agar colony formation) assay, primary breast tumor; format: cell-based, human
# [12] = system: panel of human breast cancer cell lines; experiment: antiproliferative effect, panel of seven breast cancer cell lines (summary values); format: cell-based
# [13] = system: MAXF 574; experiment: clonogenic (soft agar colony formation) assay, primary breast tumor; format: cell-based, human
# [14] = system: BT-474 breast cancer xenograft; experiment: antitumor effect in BT-474 breast cancer xenograft model; format: in vivo, mice; settings: for T/C / Tumor volume change: day 20
# Procedure: as §2
# Tumor growth and body weights were monitored at regular intervals. The xenograft tumor sizes were measured manually with calipers, and the tumor volume was estimated using the formula (w × l × h × π/6), where width (w), height (h), and length (l) are the three largest diameters.
# When applicable, results are presented as mean ± standard error of the mean. Tumor and body weight data were analyzed by analysis of variance (ANOVA) with the post hoc Dunnett test for comparison of treatment versus control groups. The post hoc Tukey test was used for intragroup comparison. Statistical analysis was performed using GraphPad Prism 5 (GraphPad Software, Inc., San Diego, CA, USA). As a measure of efficacy, the %T/C value is calculated at the end of the experiment according to (Δtumor volumetreated/Δtumor volumecontrol) × 100, where Δtumor volumes represent the mean tumor volume on the evaluation day minus the mean tumor volume at the start of the experiment.
# [15] = system: BT20; experiment: antiproliferative effect (GI50), breast cancer cell line; format: cell-based; settings: Homo sapiens, BT-20
compound,measurement,setting,value
CCNC(=O)c1noc(-c2cc(C(C)C)c(O)cc2O)c1-c1ccc(CN2CCOCC2)cc1 [NVP-AUY922],GI50,[1],7 ± 1.7 nM
same,phospho-AKT levels,[2]; single dose 30 mg/kg i.v.,reductions in phospho-AKT levels
same,phospho-AKT levels,"[2]; single i.v. dose 25 mg/kg, tumors dissected 6 hours later",reduction in phospho-AKT levels
same,"HSP70 staining intensity, recovery",[3],gradually returned to baseline over one week
same,time point of peak HSP70 staining intensity,[3],24 h
same,HSP70 staining intensity,[3]; 6 hours after administration,strongly increased HSP70 staining
same,concentration required for significant reduction of protein AKT levels,[4],around 1 μM
same,phospho-AKT levels,[4]; 50 nM,decrease in the levels of phospho-AKT
same,total ERBB2 levels,[4]; 50 nM,decrease in total ERBB2 levels
same,GI50,[5],3.1 ± 1.4 nM
same,GI50,[6],8.8 ± 1.8 nM
same,IC70 (colony formation),[7],505 nM
same,IC50,[7]; Homo sapiens,304 nM
same,IC70 (colony formation),[8],295 nM
same,IC50,"[8]; Homo sapiens, MAXF401",78 nM
same,IC70 (colony formation),[9],569 nM
same,IC50,[9]; Homo sapiens,333 nM
same,GI50,[10],3.3 ± 0.9 nM
same,IC70 (colony formation),[11],477 nM
same,IC50,[11]; Homo sapiens,209 nM
same,GI50,"[12]; seven cell lines, read-out: GI50 values, range over human breast cancer cell lines",3 to 126 nM
same,GI50,"[12]; six of the seven breast cancer cell lines, read-out: average GI50 value",5.4 nM
same,IC70 (colony formation),[13],">10,000 nM"
same,IC50,[13]; Homo sapiens,> 10000 nM
same,T/C,[14]; 8.3 mg/kg once per week,95 percentage
same,Tumor volume change,[14]; 8.3 mg/kg once per week,252 ± 73 cubic millimeters
same,T/C,[14]; 17 mg/kg once per week,72 percentage
same,Tumor volume change,[14]; 17 mg/kg once per week,191 ± 61 cubic millimeters
same,T/C,[14]; 25 mg/kg once per week,12 percentage
same,Tumor volume change,[14]; 25 mg/kg once per week,32 ± 15^a cubic millimeters
same,T/C,[14]; 41 mg/kg once per week,3 percentage
same,Tumor volume change,[14]; 41 mg/kg once per week,9 ± 13^a cubic millimeters
same,T/C,[14]; 58 mg/kg once per week,8 percentage
same,Tumor volume change,[14]; 58 mg/kg once per week,22 ± 26^a cubic millimeters
same,tumor response,"[14]; once per week i.v., 8.3 to 17 mg/kg",did not result in a significant effect on tumor growth
same,tumor response,"[14]; once per week i.v., 25 to 58 mg/kg",highly efficacious
same,tumor growth,[14]; single i.v. dose 17 mg/kg,indication of retarded tumor growth
same,time without significant tumor growth after administration,[14]; single i.v. dose 25 mg/kg,about 1 week
same,tumor size at end corresponds to control tumor size this much earlier,[14]; single i.v. dose 25 mg/kg,approximately 10 days
same,tumor size versus control group at the end of the experiment,"[14]; single i.v. dose 25 mg/kg, 21 days, P < 0.05",statistically significantly smaller
same,tumor response,"[14]; three times per week i.v., 10 mg/kg",did not result in a significant effect on tumor growth
same,tumor response,"[14]; three times per week i.v., 30 and 50 mg/kg",tumor regression
same,GI50,[15],4 ± 1.4 nM
